For assay [1], the target named is T1, BA/F3-FLT3-ITD + D835Y (Homo sapiens, UniProt P36888, D835Y, cells depend on it, form not given).
T1 sequence (P36888 with tags, fused parts or gaps INS600HVDFREYEYD/D835Y): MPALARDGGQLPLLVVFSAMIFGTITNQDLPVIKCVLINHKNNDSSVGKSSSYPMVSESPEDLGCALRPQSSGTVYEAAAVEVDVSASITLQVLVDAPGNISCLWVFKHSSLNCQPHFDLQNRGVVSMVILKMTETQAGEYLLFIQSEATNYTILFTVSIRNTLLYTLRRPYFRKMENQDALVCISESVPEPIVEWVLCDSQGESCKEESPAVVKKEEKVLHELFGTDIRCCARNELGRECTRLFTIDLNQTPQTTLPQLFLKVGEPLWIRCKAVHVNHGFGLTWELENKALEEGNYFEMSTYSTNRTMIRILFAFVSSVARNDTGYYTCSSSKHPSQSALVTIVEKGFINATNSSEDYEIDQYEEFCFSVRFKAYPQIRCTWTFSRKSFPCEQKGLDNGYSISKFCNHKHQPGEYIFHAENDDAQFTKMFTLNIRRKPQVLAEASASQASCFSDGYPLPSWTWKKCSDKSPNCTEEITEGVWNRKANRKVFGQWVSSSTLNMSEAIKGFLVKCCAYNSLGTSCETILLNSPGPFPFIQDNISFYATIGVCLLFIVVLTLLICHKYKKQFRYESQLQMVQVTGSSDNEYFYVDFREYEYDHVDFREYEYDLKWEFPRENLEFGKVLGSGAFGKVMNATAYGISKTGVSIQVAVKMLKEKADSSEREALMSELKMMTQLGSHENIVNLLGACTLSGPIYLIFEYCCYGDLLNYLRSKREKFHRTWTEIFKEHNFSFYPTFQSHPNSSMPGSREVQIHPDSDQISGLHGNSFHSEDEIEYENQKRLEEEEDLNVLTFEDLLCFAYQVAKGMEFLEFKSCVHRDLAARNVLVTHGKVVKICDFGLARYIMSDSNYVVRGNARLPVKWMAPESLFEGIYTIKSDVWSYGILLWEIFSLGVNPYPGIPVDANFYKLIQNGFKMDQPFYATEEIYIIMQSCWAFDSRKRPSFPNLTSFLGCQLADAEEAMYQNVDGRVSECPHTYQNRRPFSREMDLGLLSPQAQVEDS
The experiment in a line: Engineered BA/F3 cell growth assay, FLT3 ITD/D835Y. The assay is classed as cell-based, murine. The conditions noted are these: 3 d growth. An outline of the steps:
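IC50 derived from CellTiter-Glo ATP luminescence after 3 days at 37 °C, 5% CO2, over eight 1:3 dilutions from 1 μM (0.2% DMSO final). Cells: IL-3-independent murine Ba/F3 expressing full-length FLT3 ITD/D835Y, 1×10^4 per well.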

The test system of assay [2] is MOLM-14 F691L (endogenous FLT3 ITD and transfected FLT3 F691L). The experiment in a line: MOLM-14 F691L cell proliferation assay (CellTiter-Glo). The assay is classed as cell-based. The conditions noted are these: Homo sapiens, MOLM-14, 72 h; 3 d growth, GMean. An outline of the steps:
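MOLM-14 cells (FLT3 ITD) carrying D835Y or F691L, 1×10^4 cells/well, eight 1:3 dilutions from 1 μM final, 0.2% DMSO, 3 days at 37 °C, 5% CO2. Viability by CellTiter-Glo luminescence (ATP content); IC50 from concentration-response.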

From patent publication US10160747B2, “Compounds and methods for kinase modulation, and indications therefor” (Plexxikon Inc., priority 2016, dated 2018) come the findings set out here.

In the case of `Cc1cc(-c2cnc3[nH]c(-c4ccccc4)cc3c2)ccc1CC(=O)Nc1cccc(C(F)(F)F)c1` [Compound P-0001, 2-[2-methyl-4-(2-phenyl-1H-pyrrolo[2,3-b]pyridin-5-yl)phenyl]-N-[3-(trifluoromethyl)phenyl]acetamide], the GI50 in assay [1] was 0.0001 to 10 µM. This compound also registered an IC50 in assay [2] of 0.0001 to 10 µM.

As to `O=C(Cc1ccc(-c2cnc3[nH]c(-c4ccccc4)cc3c2)c(F)c1)Nc1cccc(C(F)(F)F)c1` [Compound P-0003, 2-[3-fluoro-4-(2-phenyl-1H-pyrrolo[2,3-b]pyridin-5-yl)phenyl]-N-[3-(trifluoromethyl)phenyl]acetamide], in assay [1], the GI50 is 0.0001 to 10 µM. Further, the IC50 in assay [2] lay in the range of 0.0001 to 10 µM. For the compound `O=C(Cc1ccc(-c2cnc3[nH]c(-c4ccccc4)cc3c2)cc1F)Nc1ccnc(C(F)(F)F)c1` [Compound P-0004, 2-[2-fluoro-4-(2-phenyl-1H-pyrrolo[2,3-b]pyridin-5-yl)phenyl]-N-[2-(trifluoromethyl)-4-pyridyl]acetamide], the GI50 in assay [1] was in the range of 0.0001 to 10 µM. In assay [2], this compound showed an IC50 of 0.0001 to 10 µM. Consider `O=C(Cc1ccc(-c2cnc3[nH]c(-c4ccccc4)cc3c2)cn1)Nc1ccnc(C(F)(F)F)c1` [Compound P-0005, 2-[5-(2-phenyl-1H-pyrrolo[2,3-b]pyridin-5-yl)-2-pyridyl]-N-[2-(trifluoromethyl)-4-pyridyl]acetamide], for which the GI50 in assay [1] lay in the range of 0.0001 to 10 µM. The compound further yielded an IC50 in assay [2] of 0.0001 to 10 µM. With `Cc1ncc(NC(=O)Cc2ccc(-c3cnc(Nc4cnn(C)c4)nc3)cc2F)cc1C(F)(F)F` [Compound P-0091, 2-[2-fluoro-4-[2-[(1-methylpyrazol-4-yl)amino]pyrimidin-5-yl]phenyl]-N-[6-methyl-5-(trifluoromethyl)-3-pyridyl]acetamide], the GI50 in assay [1] was in the range of 0.0001 to 10 µM. This compound also showed an IC50 in assay [2] of 0.0001 to 10 µM. Take `Cn1cc(Nc2ncc(-c3ccc(CC(=O)Nc4cnc(Cl)c(C(F)(F)F)c4)c(F)c3)cn2)cn1` [Compound P-0092, N-[6-chloro-5-(trifluoromethyl)-3-pyridyl]-2-[2-fluoro-4-[2-[(1-methylpyrazol-4-yl)amino]pyrimidin-5-yl]phenyl]acetamide]: the GI50 in assay [1] lay within 0.0001 to 10 µM. Besides, in assay [2], the IC50 was 0.0001 to 10 µM. Turning to `CC(C)c1cc(NC(=O)Cc2ccc(-c3cnc(Nc4cnn(C)c4)nc3)cc2F)ccn1` [Compound P-0094, 2-[2-fluoro-4-[2-[(1-methylpyrazol-4-yl)amino]pyrimidin-5-yl]phenyl]-N-(2-isopropyl-4-pyridyl)acetamide], the GI50 in assay [1] was in the range of 0.0001 to 10 µM. In assay [2], this compound came in with an IC50 of 0.0001 to 10 µM. Take `Cn1cc(Nc2ncc(-c3ccc(CC(=O)Nc4ccc(C(F)(F)F)nc4)cc3)cn2)cn1` [Compound P-0095, 2-[4-[2-[(1-methylpyrazol-4-yl)amino]pyrimidin-5-yl]phenyl]-N-[6-(trifluoromethyl)-3-pyridyl]acetamide]: in assay [1], the GI50 was in the range of 0.0001 to 10 µM. In addition, in assay [2], the IC50 is 0.0001 to 10 µM. Take `Cn1cnc(Nc2ncc(-c3ccc(CC(=O)Nc4cc(C(F)(F)F)ccn4)c(F)c3)cn2)c1` [Compound P-0096, 2-[2-fluoro-4-[2-[(1-methylimidazol-4-yl)amino]pyrimidin-5-yl]phenyl]-N-[4-(trifluoromethyl)-2-pyridyl]acetamide]: in assay [1], the GI50 lay in the range of 0.0001 to 10 µM. This compound also had an IC50 in assay [2] of 0.0001 to 10 µM. For the compound `Cn1cc(Nc2ncc(-c3ccc(CC(=O)Nc4ccnc(C5CC5)c4)cc3)cn2)cn1` [Compound P-0097, N-(2-cyclopropyl-4-pyridyl)-2-[4-[2-[(1-methylpyrazol-4-yl)amino]pyrimidin-5-yl]phenyl]acetamide], the GI50 in assay [1] was in the range of 0.0001 to 10 µM. Further, the IC50 in assay [2] lay in the range of 0.0001 to 10 µM. For the compound `Cn1cc(Nc2ncc(-c3ccc(CC(=O)Nc4ccnc(C5CC5)c4)c(F)c3)cn2)cn1` [Compound P-0098, N-(2-cyclopropyl-4-pyridyl)-2-[2-fluoro-4-[2-[(1-methylpyrazol-4-yl)amino]pyrimidin-5-yl]phenyl]acetamide], the GI50 in assay [1] lay within 0.0001 to 10 µM. The IC50 in assay [2] is 0.0001 to 10 µM. With `Cn1cc(Nc2ncc(-c3ccc(CC(=O)Nc4cnnc(Cl)c4)cc3)cn2)cn1` [Compound P-0151, N-(6-chloropyridazin-4-yl)-2-[4-[2-[(1-methylpyrazol-4-yl)amino]pyrimidin-5-yl]phenyl]acetamide], in assay [1], the GI50 was in the range of 0.0001 to 10 µM. Take `COc1cc(NC(=O)Cc2ccc(-c3cnc(Nc4cnn(C)c4)nc3)cc2)ccn1` [Compound P-0153, N-(2-methoxy-4-pyridyl)-2-[4-[2-[(1-methylpyrazol-4-yl)amino]pyrimidin-5-yl]phenyl]acetamide]: the GI50 in assay [1] fell in the range of 0.0001 to 10 µM. On the same count and under the same terms, the value for `Cn1cnc(Nc2ncc(-c3ccc(CC(=O)Nc4cnc(F)c(C(C)(F)F)c4)cc3F)cn2)c1` [Compound P-0170, N-[5-(1,1-difluoroethyl)-6-fluoro-3-pyridyl]-2-[3-fluoro-4-[2-[(1-methylimidazol-4-yl)amino]pyrimidin-5-yl]phenyl]acetamide] was 0.0001 to 10 µM. The same measure, in the same setting: the value for `Cc1ncc(NC(=O)Cc2ccc(-c3cnc4[nH]nc(C)c4c3)c(F)c2)cc1C(F)(F)F` [Compound P-0172, 2-[3-fluoro-4-(3-methyl-1H-pyrazolo[3,4-b]pyridin-5-yl)phenyl]-N-[6-methyl-5-(trifluoromethyl)-3-pyridyl]acetamide] was 0.0001 to 10 µM; that for `Cc1n[nH]c2ncc(-c3cc(F)c(CC(=O)Nc4cncc(C(F)(F)F)c4)cc3F)cc12` [Compound P-0173, 2-[2,5-difluoro-4-(3-methyl-1H-pyrazolo[3,4-b]pyridin-5-yl)phenyl]-N-[5-(trifluoromethyl)-3-pyridyl]acetamide] was 0.0001 to 10 µM.

As for `COc1ncc(NC(=O)Cc2ccc(-c3cnc4[nH]nc(C)c4c3)c(F)c2)cc1C(F)(F)F` [Compound P-0174, 2-[3-fluoro-4-(3-methyl-1H-pyrazolo[3,4-b]pyridin-5-yl)phenyl]-N-[6-methoxy-5-(trifluoromethyl)-3-pyridyl]acetamide], the GI50 in assay [1] fell in the range of 0.0001 to 10 µM. Same read-out and setting: the value for `Cc1ncc(NC(=O)Cc2cc(F)c(-c3cnc4[nH]nc(C)c4c3)cc2F)cc1C(F)(F)F` [Compound P-0175, 2-(2,5-difluoro-4-(3-methyl-1H-pyrazolo[3,4-b]pyridin-5-yl)phenyl)-N-(6-methyl-5-(trifluoromethyl)pyridin-3-yl)acetamide] was 0.0001 to 10 µM; that for `COc1ncc(NC(=O)Cc2cc(F)c(-c3cnc4[nH]nc(C)c4c3)cc2F)cc1C(F)(F)F` [Compound P-0176, 2-[2,5-difluoro-4-(3-methyl-1H-pyrazolo[3,4-b]pyridin-5-yl)phenyl]-N-[6-methoxy-5-(trifluoromethyl)-3-pyridyl]acetamide] was 0.0001 to 10 µM. Still for that read-out and setting: the result for `Cc1n[nH]c2ncc(-c3ccc(CC(=O)Nc4cncc(C(F)(F)F)c4)cc3F)cc12` [Compound P-0177, 2-[3-fluoro-4-(3-methyl-1H-pyrazolo[3,4-b]pyridin-5-yl)phenyl]-N-[5-(trifluoromethyl)-3-pyridyl]acetamide] reads 0.0001 to 10 µM; that for `COc1ccc(-c2cc3cc(-c4ccc(CC(=O)Nc5cc(C(F)(F)F)ccn5)cc4F)cnc3[nH]2)cn1` [Compound P-0191, 2-[3-fluoro-4-[2-(6-methoxy-3-pyridyl)-1H-pyrrolo[2,3-b]pyridin-5-yl]phenyl]-N-[4-(trifluoromethyl)-2-pyridyl]acetamide], 0.0001 to 10 µM. As to `N#Cc1cc(-c2cc3cc(-c4ccc(CC(=O)Nc5cc(C(F)(F)F)ccn5)cc4F)cnc3[nH]2)ccn1` [Compound P-0194, 2-[4-[2-(2-cyano-4-pyridyl)-1H-pyrrolo[2,3-b]pyridin-5-yl]-3-fluoro-phenyl]-N-[4-(trifluoromethyl)-2-pyridyl]acetamide], the GI50 in assay [1] was 0.0001 to 10 µM. On to `N#Cc1ccc(-c2cc3cc(-c4ccc(CC(=O)Nc5cncc(C(F)(F)F)c5)cc4F)cnc3[nH]2)cn1` [Compound P-0195, 2-[4-[2-(6-cyano-3-pyridyl)-1H-pyrrolo[2,3-b]pyridin-5-yl]-3-fluoro-phenyl]-N-[5-(trifluoromethyl)-3-pyridyl]acetamide], for which, in assay [1], the GI50 was in the range of 0.0001 to 10 µM.
